Drawing on ChEMBL document CHEMBL1255359, “Mechanisms of macrolide resistance among Streptococcus pneumoniae isolates from Russia” (2008), this text covers MIC for two compounds.

Each structure is given as a SMILES string. Converted amounts (≈) assume the structure as drawn.

Common to all, as to format: functional
The subject of assay [1] is Streptococcus pneumoniae. Kind of assay: Antibacterial activity against macrolide resistant and mef(E)-positive Streptococcus pneumoniae by broth dilution method.
The test system of assay [2] is Streptococcus pneumoniae. Kind of assay: Antibacterial activity against macrolide resistant and mef(I)-positive Streptococcus pneumoniae by broth dilution method.
The test system of assay [3] is Streptococcus pneumoniae. Kind of assay: Antibacterial activity against macrolide resistant and mef-positive Streptococcus pneumoniae by broth dilution method.
The subject of assay [4] is Streptococcus pneumoniae. Kind of assay: Antibacterial activity against inducible macrolide-lincosamide-streptogramin B resistant and erm(B)-positive Streptococcus pneumoniae by broth dilution method.
The subject of assay [5] is Streptococcus pneumoniae. Kind of assay: Antibacterial activity against constitutive macrolide-lincosamide-streptogramin B resistant and erm(B)-positive Streptococcus pneumoniae by broth dilution method.
Assay [6] concerns Streptococcus pneumoniae. Kind of assay: Antibacterial activity against inducible macrolide-lincosamide-streptogramin B resistant erm(B) and mef(E)-positive Streptococcus pneumoniae by broth dilution method.
The test system of assay [7] is Streptococcus pneumoniae. Kind of assay: Antibacterial activity against constitutive macrolide-lincosamide-streptogramin B resistant erm(B) and mef(E)-positive Streptococcus pneumoniae by broth dilution method.

In the case of `CCC[C@@H]1C[C@@H](C(=O)N[C@@H]([C@H]2O[C@H](SC)[C@H](O)[C@@H](O)[C@H]2O)[C@H](C)Cl)N(C)C1` [CLINDAMYCIN], the MIC was 0.015 µg/mL (≈ 0.0353 µM) in the assay on Streptococcus pneumoniae [1]; 0.015 µg/mL (≈ 0.0353 µM) with Streptococcus pneumoniae [2]; 0.03 µg/mL (≈ 0.0706 µM) in the assay with Streptococcus pneumoniae [3]; no less than 2 µg/mL with Streptococcus pneumoniae [4]; no less than 32 µg/mL against Streptococcus pneumoniae [5]; no less than 32 µg/mL against Streptococcus pneumoniae [6]. Further, the MIC in the assay with Streptococcus pneumoniae [7] is no less than 8 µg/mL.

For `CC[C@H]1OC(=O)[C@H](C)[C@@H](O[C@H]2C[C@@](C)(OC)[C@@H](O)[C@H](C)O2)[C@H](C)[C@@H](O[C@@H]2O[C@H](C)C[C@H](N(C)C)[C@H]2O)[C@](C)(O)C[C@@H](C)C(=O)[C@H](C)[C@@H](O)[C@]1(C)O` [ERYTHROMYCIN], the MIC is 1 µg/mL (≈ 1.36 µM) against Streptococcus pneumoniae [1]; 2 µg/mL (≈ 2.73 µM) against Streptococcus pneumoniae [2]; 8 µg/mL (≈ 10.9 µM) with Streptococcus pneumoniae [3]; no less than 2 µg/mL in the assay on Streptococcus pneumoniae [4]; no less than 32 µg/mL with Streptococcus pneumoniae [5]; no less than 32 µg/mL in the assay on Streptococcus pneumoniae [6]. The MIC with Streptococcus pneumoniae [7] was no less than 32 µg/mL.
